Article PMC6522524 (Nature Communications, 2019)
“And” between values parts separate entries of the source, which are not always exact repeats. Equal values may be shown once. Read-outs that look alike come from different tables or passages of the source.

What was measured:
[1] = system: HepG2 cells; test: in vitro; format: cell-based, human; details: HepG2+HBV 1.2X; With DFO; Concentration 0 μM
Experimental: (§1) Supplementary Fig. 11. Effect of FBS serum iron level on Huh-7, HepG2, and HepG2.2.15 cell
(§2) a Cells were maintained in medium supplemented with 2% FBS or 10% FBS for 1 day and treated with
(§3) After 6 days, cytotoxicity was measured. b Cells were treated with
(§4) the ± SD. *p < 0.05 by unpaired two-tailed Student’s t-test.

[2] = system: Huh-7 cells; test: in vitro; format: cell-based, human; details: Huh7+HBV 1.2X; With DFO; Concentration 0 μM
Experimental: as §1, §2, §3, §4

[3] = system: HepG2.2.15 cells; details: HepG2.2.15; With DFO; Concentration 0 μM
[4] = system: HBV replicative plasmid pAAV-HBV1.2× in C57BL/6 mice; test: Hydrodynamic injection mouse model (pAAV-HBV1.2×, C57BL/6 mice); format: in vivo; details: for HBsAg, Sample1-5: single samples
[5] = system: HBV cccDNA in Huh-7-NTCP cells; test: In vitro HBV infection model, Huh-7-NTCP cells: intracellular cccDNA; details: Huh-7-NTCP
Experimental: (§5) HepG2 and Huh-7 cells permanently expressing NTCP were generated by infecting them with an NTCP-encoding recombinant retrovirus and isolating GFP-expressing cells.
(§6) The isolated intracellular HBV DNA was subjected to PCR with an HBV DNA primer and probe set (Supplementary Table 1). cccDNA was isolated by the Hirt extraction method[54]. Briefly, the cells were lysed in SDS lysis buffer (50 mM Tris-HCl, pH 8.0, 10 mM EDTA, 150 mM NaCl, 1% SDS), and the lysates were mixed with KCl to a final concentration of 0.5 M. After incubation at 4 °C for 30 min, each lysate was centrifuged and the supernatant was extracted three times with phenol and once with chloroform. The DNA was then recovered by ethanol precipitation, and treated with T5 nuclease (10 U per μg for 0.5 h, M0363, New England Biolabs), and the enzyme was subsequently heat-denatured at 70 °C. The isolated cccDNA was subjected to PCR with a cccDNA primer and probe set (Supplementary Table 1).
(§7) HepG2-NTCP and Huh-7-NTCP cells were cultured in 12-well plates with the indicated compound(s) for 4 h, after which the cells were infected with HBV particles (10^7 viral genome equivalent per mL, genotype D) and treated with the indicated compound(s) for another 16 h. […]
(§8) Quantitative PCR with an HBV DNA primer and probe set was used to measure intracellular
(§9) cccDNA. The data are expressed as means ± SDs. […]

[6] = system: HBV cccDNA in HepG2-NTCP cells; test: In vitro HBV infection model, HepG2-NTCP cells: intracellular cccDNA; details: HepG2-NTCP
Experimental: as §5, §6, §7, §8, §9

[7] = system: HBV (genotype D) in PXB mice; details: for ALT(ng/mL), Sample1-3 / HBeAg(Signal to control ratio), Sample1-3 / HBsAg(ng/mL), Sample1-3 / Human albumin(g/dL), Sample1-3: individual samples
[8] = biological target: the molecule itself; test: crystal structure
[9] = 5 mg per kg oral daily, by day 5

CC(=O)N(O)CCCCCNC(=O)CCC(=O)N(O)CCCCCNC(=O)CCC(=O)N(O)CCCCCN [DFO]
Cell viability(%), AVERAGE, DFO alone [1]: 98.1893% | Cell viability(%), AVERAGE, DFO alone [2]: 97.5263% | Cell viability(%), AVERAGE, DFO alone [3]: 97.6681%

C[C@H](Cn1cnc2c(N)ncnc21)OCP(=O)(O)O [TDF, tenofovir]
HBV core protein levels in the liver [4, 9]: reduced HBV core protein levels in the liver | serum HBV DNA levels [4, 9]: significantly lowered serum HBV DNA levels | HBsAg, AVERAGE ([4]; day 2): 271.658 ng/mL | HBsAg, AVERAGE ([4]; day 3): 286.73 ng/mL | HBsAg, AVERAGE ([4]; day 4): 300.864 ng/mL | HBsAg, AVERAGE ([4]; day 5): 301.678 ng/mL | HBsAg, Sample1-5 ([4]; day 2): 271.684 ng/mL and 284.96 ng/mL and 258.424 ng/mL and 258.29 ng/mL and 284.933 ng/mL | HBsAg, Sample1-5 ([4]; day 3): 286.759 ng/mL and 301.375 ng/mL and 272.159 ng/mL and 272.011 ng/mL and 301.346 ng/mL | HBsAg, Sample1-5 ([4]; day 4): 300.869 ng/mL and 303.445 ng/mL and 298.296 ng/mL and 298.27 ng/mL and 303.44 ng/mL | HBsAg, Sample1-5 ([4]; day 5): 301.701 ng/mL and 312.285 ng/mL and 291.119 ng/mL and 291.012 ng/mL and 312.273 ng/mL | cccDNA levels [5]: reduced cccDNA levels | cccDNA levels [6]: reduced cccDNA levels | intrahepatic cccDNA ([7]; 5 mg per kg oral daily, by week 5): significantly reduced the amount of intrahepatic cccDNA | HBeAg levels ([7]; 5 mg per kg oral daily, by week 5, compared to control): significantly decreased HBeAg levels | cccDNA, individual samples ([7]; Figure 7g, Sample1-3): 0.17 log copies/cell and 0.21 log copies/cell and 0.12 log copies/cell | cccDNA, AVERAGE ([7]; Figure 7g, average of 3 samples): 0.166 log copies/cell | Serum HBV DNA, AVERAGE ([7]; mouse, in vivo): 4.377 log copies/mL | Serum HBV DNA, individual samples ([7]; mouse, in vivo): 4.385 log copies/mL and 3.759 log copies/mL and 4.998 log copies/mL | Serum ALT levels ([7]; mouse, in vivo, po): decreased | ALT(ng/mL), AVERAGE ([7]; week 0): 115.048 ng/mL | HBeAg(Signal to control ratio), AVERAGE ([7]; week 0): 3.779 Signal to control ratio | HBsAg(ng/mL), AVERAGE ([7]; week 0): 399.9 ng/mL | Human albumin(g/dL), AVERAGE ([7]; week 0): 4.601 g/dL | ALT(ng/mL), Sample1-3 ([7]; week 0): 115.042 ng/mL and 132.129 ng/mL and 97.9737 ng/mL | HBeAg(Signal to control ratio), Sample1-3 ([7]; week 0): 3.7788 Signal to control ratio and 3.545 Signal to control ratio and 4.013 Signal to control ratio | HBsAg(ng/mL), Sample1-3 ([7]; week 0): 400.008 ng/mL and 382.767 ng/mL and 416.907 ng/mL | Human albumin(g/dL), Sample1-3 ([7]; week 0): 4.6008 g/dL and 4.367 g/dL and 4.835 g/dL | ALT(ng/mL), AVERAGE ([7]; week 1): 115.048 ng/mL | HBeAg(Signal to control ratio), AVERAGE ([7]; week 1): 3.705 Signal to control ratio | HBsAg(ng/mL), AVERAGE ([7]; week 1): 397.7 ng/mL | Human albumin(g/dL), AVERAGE ([7]; week 1): 4.701 g/dL | ALT(ng/mL), Sample1-3 ([7]; week 1): 115.042 ng/mL and 132.61 ng/mL and 97.4937 ng/mL | HBeAg(Signal to control ratio), Sample1-3 ([7]; week 1): 3.705 Signal to control ratio and 3.582 Signal to control ratio and 3.828 Signal to control ratio | HBsAg(ng/mL), Sample1-3 ([7]; week 1): 397.708 ng/mL and 379.982 ng/mL and 415.082 ng/mL | Human albumin(g/dL), Sample1-3 ([7]; week 1): 4.7008 g/dL and 4.578 g/dL and 4.824 g/dL | ALT(ng/mL), AVERAGE ([7]; week 2): 67.3429 ng/mL | HBeAg(Signal to control ratio), AVERAGE ([7]; week 2): 3.6862 Signal to control ratio | HBsAg(ng/mL), AVERAGE ([7]; week 2): 390.5 ng/mL | Human albumin(g/dL), AVERAGE ([7]; week 2): 4.6007 g/dL | ALT(ng/mL), Sample1-3 ([7]; week 2): 67.3361 ng/mL and 86.0047 ng/mL and 48.688 ng/mL | HBeAg(Signal to control ratio), Sample1-3 ([7]; week 2): 3.6863 Signal to control ratio and 3.541 Signal to control ratio and 3.831 Signal to control ratio | HBsAg(ng/mL), Sample1-3 ([7]; week 2): 390.508 ng/mL and 371.671 ng/mL and 408.971 ng/mL | Human albumin(g/dL), Sample1-3 ([7]; week 2): 4.6008 g/dL and 4.456 g/dL and 4.746 g/dL | ALT(ng/mL), AVERAGE ([7]; week 3): 35.9023 ng/mL | HBeAg(Signal to control ratio), AVERAGE ([7]; week 3): 3.392 Signal to control ratio | HBsAg(ng/mL), AVERAGE ([7]; week 3): 386.5 ng/mL | Human albumin(g/dL), AVERAGE ([7]; week 3): 4.4 g/dL | HBeAg(Signal to control ratio), Sample1-3 ([7]; week 3): 3.3922 Signal to control ratio and 2.738 Signal to control ratio and 4.046 Signal to control ratio | HBsAg(ng/mL), Sample1-3 ([7]; week 3): 386.508 ng/mL and 366.308 ng/mL and 406.308 ng/mL | Human albumin(g/dL), Sample1-3 ([7]; week 3): 4.4008 g/dL and 3.746 g/dL and 5.054 g/dL | ALT(ng/mL), AVERAGE ([7]; week 4): 31.5198 ng/mL | HBeAg(Signal to control ratio), AVERAGE ([7]; week 4): 3.246 Signal to control ratio | HBsAg(ng/mL), AVERAGE ([7]; week 4): 375.5 ng/mL | Human albumin(g/dL), AVERAGE ([7]; week 4): 4.601 g/dL | HBeAg(Signal to control ratio), Sample1-3 ([7]; week 4): 3.2465 Signal to control ratio and 2.922 Signal to control ratio and 3.57 Signal to control ratio | HBsAg(ng/mL), Sample1-3 ([7]; week 4): 375.508 ng/mL and 355.54 ng/mL and 395.08 ng/mL | Human albumin(g/dL), Sample1-3 ([7]; week 4): 4.6008 g/dL and 4.276 g/dL and 4.924 g/dL | ALT(ng/mL), AVERAGE ([7]; week 5): 19.0197 ng/mL | HBeAg(Signal to control ratio), AVERAGE ([7]; week 5): 3.146 Signal to control ratio | HBsAg(ng/mL), AVERAGE ([7]; week 5): 370.7 ng/mL | Human albumin(g/dL), AVERAGE ([7]; week 5): 4.801 g/dL | HBeAg(Signal to control ratio), Sample1-3 ([7]; week 5): 3.1465 Signal to control ratio and 2.933 Signal to control ratio and 3.359 Signal to control ratio | HBsAg(ng/mL), Sample1-3 ([7]; week 5): 370.708 ng/mL and 351.467 ng/mL and 389.567 ng/mL | Human albumin(g/dL), Sample1-3 ([7]; week 5): 4.8008 g/dL and 4.588 g/dL and 5.014 g/dL

B1: Cp149-Y132A (Y132A mutant of Cp149) (domain or fragment)
chain: MDIDPYKEFGATVELLSFLPSDFFPSVRDLLDTAAALYRDALESPEHCSPHHTALRQAILCWGDLMTLATWVGTNLEDPASRDLVVSYVNTNVGLKFRQLLWFHISCLTFGRETVLEYLVSFGVWIRTPPAARPPNAPILSTLPETTVV
notes: source: E. coli BL21 (DE3), purified (Ni-NTA, thrombin, HiTrap Q anion exchange)
stoichiometry N [8]: 6
